Laboratory results published in patent US8816047B2 (Cure DM Group Holdings, LLC, priority 2007, dated 2014).
“Also recorded” adds a separate entry of the source. Read-outs that look alike come from different tables or passages of the source. Each block holds one compound with its values, some of them ahead of it. Where a SMILES comes first, the peptide text is derived from it. Bridges are numbered along the chain shown (N, C = ends). Roman numbers before positions name the chains, in order. Where no end group is shown, it is not given here.

Assays:
[1] = In vitro stability of peptides to proteases in human plasma at 37 C (HPLC/LC-MS); format: in vitro ADME; details: for stability to plasma proteases: 1 hr
Method: The peptides were incubated in human plasma, at 37° C. Sample incubations were performed over a period of 1 hr. Individual time points of 1, 5, 10, 30, and 60 minutes were used to follow the reactions. Deactivation of plasma proteases at each time point was achieved by heating the samples at 100° C. for 1 min. Following work-up the plasma treated samples were evaluated by reverse phase chromatography in series with at mass spectrometer, HPLC/LC-MS, against control samples.
Plasma Treated with HIP and Optimized HIP peptides were evaluated over 1, 5, 10, 30 and 60 minutes. For each time point 0.70 ml of plasma was pipetted into a 10 ml test tube. To each was added 0.30 ml of a stock solution of HIP or Optimized HIP peptide (1.66 mg/ml) prepared in phosphate buffered saline. The plasma/peptide samples were incubated at 37° C. for each time point followed by heating at 100° C. to inactivate the proteolytic activity of plasma proteases. Following inactivation, the samples were diluted with 1 ml of H2O, centrifuged and the supernatant liquid removed for analysis.
Samples were analyzed on a C-18 reverse phase column (50 mm×2.0 mm) using 0.07% TFA in H2O as buffer A and 0.07% TFA in acetonitrile as buffer B. A linear gradient of 98% A/2% B progressing to 30% A/70% B over 10 min. was used at a flow rate of 0.4 ml/min. Eluant was monitored by UV at a wavelength of 220 nm and by mass spectroscopy. Comparisons of chromatographic profiles of plasma treated peptides (37° C.) against peptide reference samples and plasma controls were used to determine the relative stability of peptide to plasma treatment.
T=0: Plasma (0.7 ml) plus peptide stock solution (0.3 ml), heat 100° C. 1 min. add 1 ml H2O, centrifuge.
Plasma background control: 0.7 ml plasma plus PBS (0.3 ml), heat 100° C. 1 min, add 1 ml H2O, centrifuge.
Peptide reference heat treated: Peptide stock solution (0.3 ml) plus 0.7 ml PBS, heat 100° C. 1 min., add 1 ml H2O.
Peptide reference no heat: Peptide stock solution (0.3 ml) add 0.7 ml PBS plus 1 ml H2O.

[2] = Pharmacokinetics and absolute bioavailability in Sprague Dawley rats, IV and SC 4 mg/kg (LC/MS MS); format: in vivo, rat; details: for F: SQ versus IV; for appearance of animals post-dosing: all times post-dosing, each route; for C0: estimated; for plasma levels: intravenous or subcutaneous
Method: The absolute bioavailability and pharmacodynamic study was conducted in Sprague Dawley rats following intravenous and subcutaneous dose administration of HIP2 (FIG. 24), Optimized HIP2B and INGAP. The purpose was to determine the absorption, absolute bioavailability and plasma levels of HIP2, Optimized HIP2B and INGAP in male rats following two different routes of administration.
Six Groups of five male Sprague Dawley rats were administered HIP2, HIP2B or INGAP by intravenous and subcutaneous routes as follows in table below.
Ten serial blood plasma samples (0.03 ml each) were collected from a jugular vein catheter from five animals per group at 5, 10, 15, 30 minutes, 45 minutes followed by samples at 1, 2, 3, 8, and 24 hours post-dose. Plasma was collected into tubes containing EDTA. Following collection, samples were kept chilled on cool packs before centrifugation and transfer to pre-labeled microfuge tubes for storage at −70° C. or below.
Rat plasma samples of 200 μl each were added to a micro centrifuge tube containing 1 ml of acetonitrile (0.07% trifluoroacetic acid, TFA) and stirred with a vortex mixer for 1 min. followed by centrifugation to remove precipitated plasma proteins. The supernatant solution was removed and evaporated, using a Speed Vac, to dryness. To the micro centrifuge tube containing the dry pellet was added 200 μl of 20:80 acetonitrile:water (containing 0.07% TFA). The sample was centrifuged to remove any insoluble material and the supernatant solution transferred to analytical vials for LC/MS MS analysis. The mass spectrometer was calibrated to detect the most abundant daughter ion/ions observed for each of the respective reference samples of HIP2B (M=286.0), HIP2 (M=287.1) and INGAP (M=212.2, 356.1, 373.9). Optimized HIP2B, HIP2 and INGAP plasma samples were analyzed on a C-18 reverse phase column (50 mm×2.0 mm, Varian Pursuit XRS3) using 0.07% TFA in H2O as buffer A and 0.07% TFA in acetonitrile as buffer B. A linear gradient of 98% A/2% B progressing to 100% B over 9 minutes was used at a flow rate of 0.4 ml/min.
The following plasma controls were treated as described above and used to establish a standard concentration curve: • 1. Blank plasma as a background control • 2. Five standard plasma samples containing 6.7×10^4, 6.7×10^3, 6.7×10^2, […] ng/ml of HIP2B, HIP2 and INGAP

human plasma = details: 37° C., up to 60 minutes
[3] = HIP2B stability study in distilled water by LC/MS; format: physicochemical; details: 4-8° C. and 25° C., 1, 2 and 3 weeks
Method: Experimental Procedure. The study was initiated with two groups of eight samples each. One group is maintained at 4-8° C. and the other at 25° C., as part of a 2 month stability study. Each sample contains 4.57 milligrams of HIP2B in 5 micro liters of distilled water. One sample from each temperature group is removed and placed in a minus 20° C. freezer, for storage, every seven days until an LC/MS analysis can be performed. A series of samples were evaluated after 1, 2, and 3 weeks in the stability study against a control sample of HIP2B which had been prepared at the initiation of the study and stored at −20° C. After three weeks of stability testing at each of the temperatures described above, all of the samples were unchanged as determined by LC/MS and therefore deemed stable at 1, 2, and three weeks.

diabetic mice = experiment: Streptozocin diabetic mouse model, 28 days twice-daily IP dosing (Example 2); format: in vivo
Method: In Vivo Studies. HIP3, HIP1 and HIP2 has been the subject of in vivo studies in mice. […] The subject number was selected to yield a sufficient number of diabetic animals for the study and animals were randomly assigned to study groups. All animals were dosed via intraperitoneal injections twice daily (am and pm) for 28 consecutive days. The timing of dose administration remained consistent (±2 hours) during the dosing phase.
Mice were injected intraperitoneally with streptozocin at 40 mg/kg in citrate buffer, pH 4.5, on 5 consecutive days in an attempt to render them diabetic. […] If the blood glucose level in any animal rose to above 400 mg/dL, the animal was treated with insulin. Every 3 days, at the same time each day, a nick was made on the tail and a drop of blood was collected. Glucose measurements were determined using a glucose meter. Group assignments and dose levels were as follows in Table 1:
Study endpoints included the following: changes in glucose; changes in insulin requirements; and histology of post-mortem pancreata.

[4] = rat, in vivo, SQ, rat, read-out: AUC(0-∝)
[5] = rat, in vivo, SQ, rat, read-out: T1/2 (converted)
[6] = rat, in vivo, iv, rat, read-out: AUC(0-∝)
[7] = rat, in vivo, iv, rat, read-out: T1/2 (converted)

new component (proteolysis product) ([1]; human plasma 37° C., 1 min): 5%
new component (proteolysis product) ([1]; human plasma 37° C., 30 min): ≈ 50%
new component (proteolysis product) ([1]; human plasma 37° C., 60 min): ≈ 70%
C1 h ([2]; IV, rat): 0 ng/mL
F ([2]; rat): 0.01
C1 h ([2]; SQ, rat): 0 ng/mL
appearance of animals post-dosing [2]: appeared normal
Cmax ([2]; in vivo, IV, rat): 29 ng/mL
Tmax ([2]; in vivo, IV, rat): 4.98 min
C0 ([2]; in vivo, IV, rat): 18800 ng/mL
Tmax ([2]; in vivo, SQ, rat): 4.98 min
Cmax ([2]; in vivo, SQ, rat, n = 5): 32 ng/mL
AUC [2, 4]: 2.7 ng·h/mL
half-life [2, 5]: 1.2 min
AUC [2, 6]: 442 ng·h/mL
half-life [2, 7]: 1.2 min
Compound: IGLHDPTQGTEPNG [HIP2, Ile-Gly-Leu-His-Asp-Pro-Thr-Gln-Gly-Thr-Glu-Pro-Asn-Gly]
plasma levels ([2]; rat): very low levels of HIP2 were observed only at five minutes post dosage; also recorded: Very low levels of HIP2 were detected at 5 minutes; also recorded: observed only at the 5 minute time point

Compound: IGLHDPTQGTEPNG
cleaved bond (human plasma): isoleucine-G, major, 1 min; also recorded: L-H, minor

Compound: Ac-IGLHDPTQGTEPNG-NH2
not cleaved (human plasma): completely stable to plasma proteases after 1 hr of incubation at 37 °C

Compound: Ac-Ile-Gly-Leu-His-Asp-Pro-Thr-Gln-Gly-Thr-Glu-Pro-Asn-Gly-Cys(PEG)-NH2 [HIP2B Cys-PEG]
stability to plasma proteases ([1]; human plasma 37° C.): stable to plasma proteases for up to 1 hr

stability to plasma proteases ([1]; human plasma 37° C.): completely stable
Compound: Ac-IGLHDPTQGTEPNGE-NH2 [HIP3B, Ac-Ile-Gly-Leu-His-Asp-Pro-Thr-Gln-Gly-Thr-Glu-Pro-Asn-Gly-Glu-NH2]

stability by LC/MS [3]: unchanged
stability to plasma proteases ([1]; human plasma 37° C.): completely stable
stability in vitro in serum ([1]; serum at 37 degrees, relative to HIP 2): significantly more a more stable
AUC(0-∝) ([2]; IV, rat): 1614.3 ng·h/mL
C1 h ([2]; IV, rat): 114 ng/mL
F ([2]; rat): 0.87
appearance of animals post-dosing [2]: appeared normal
Cmax ([2]; in vivo, IV, rat): 8240 ng/mL
Tmax ([2]; in vivo, IV, rat): 4.98 min
C0 ([2]; in vivo, IV, rat): 18800 ng/mL
clearance ([2]; in vivo, IV, rat, read-out: apparent mean plasma clearance (converted)): 31.7 mL/min/kg
Vd ([2]; in vivo, IV, rat, read-out: apparent mean volume of distribution): 0.48 L/kg
Tmax ([2]; in vivo, SQ, rat): 10 min
Cmax ([2]; in vivo, SQ, rat, n = 5): 2740 ng/mL
bioavailability ([2]; in vivo, sc, rat, read-out: absolute subcutaneous bioavailability): 87%
CL/F ([2]; in vivo, sc, subcutaneous, rat, read-out: apparent mean Cl/F (converted)): 35 mL/min/kg
time by which concentrations were undetectable ([2]; intravenous, rat): ≤ 45 min
level at 1 h ([2]; male, Sprague Dawley, plasma, sc, SQ, rat, read-out: C1 h): 612 ng/mL
Vd/F ([2]; male, Sprague Dawley, plasma, sc, subcutaneous, rat, read-out: apparent mean V2/F): 1 L/kg
AUC [2, 4]: 1930 ng·h/mL
half-life [2, 5]: 20.4 min
AUC [2, 6]: 2230 ng·h/mL
half-life [2, 7]: 11.4 min
half-life ([2]; rat, in vivo, iv, rat, read-out: terminal phase plasma half-life): 11 min
half-life ([2]; rat, in vivo, sc, subcutaneous, rat, read-out: terminal phase plasma half-life): 20 min
Compound: Ac-IGLHDPTQGTEPNG-NH2 [HIP2B, Ac-Ile-Gly-Leu-His-Asp-Pro-Thr-Gln-Gly-Thr-Glu-Pro-Asn-Gly-NH2]
plasma levels ([2]; rat): significantly higher relative to HIP2 or INGAP

Compound: (Ac-IGLHDPTQGTEPNGC-NH2)2
not cleaved (human plasma): stable to plasma proteases for at least 1 hr

remaining at 1 h, 0.498 mg/ml ([1]; human plasma 37° C., after 60 min, read-out: starting concentration of peptide remaining): ~50%
Compound: IGLHDPTQGTEPNGE [HIP3, Ile-Gly-Leu-His-Asp-Pro-Thr-Gln-Gly-Thr-Glu-Pro-Asn-Gly-Glu]

Compound: Ac-IGLHDPTQGTEPNGC(PEG)-NH2
not cleaved (human plasma): stable to plasma proteases for up to 1 hr

C1 h ([2]; IV, rat): 0 ng/mL
F ([2]; rat): 0.00
C1 h ([2]; SQ, rat): 0 ng/mL
appearance of animals post-dosing [2]: appeared normal
C0 ([2]; male, Sprague-Dawley, plasma, IV, rat): 18800 ng/mL
AUC ([2]; male, Sprague-Dawley, rat, plasma, iv, rat, footnote *extrapolated, read-out: AUC(0-∝), extrapolated): 440 ng·h/mL
half-life ([2]; male, Sprague-Dawley, rat, plasma, iv, rat, read-out: T1/2 (converted)): < 1.5 min
half-life ([2]; male, Sprague-Dawley, rat, plasma, subcutaneous, SQ, rat, read-out: T1/2 (converted)): < 1.5 min
Compound: IGLHDPSHGTLPNGS [INGAP, Ile-Gly-Leu-His-Asp-Pro-Ser-His-Gly-Thr-Leu-Pro-Asn-Gly-Ser, reference compound]
plasma levels ([2]; rat): below the lower limit of quantitation; also recorded: undetectable at any time point

Compound: Ac-IGLHDPTQGTEPNGE-NH2
not cleaved (human plasma): completely stable up to 1 hr of plasma incubation

Compound: WIGLHDPTQGTEPNG [HIP1]
lower mean glucose versus control (diabetic mice; 250 μg IP twice daily for 28 days, STZ diabetic mice): 14.7%
differentiation of progenitor cells within the pancreas into new islet structures (diabetic mice; introduced into diabetic mice): stimulate differentiation of progenitor cells within the pancreas into new islet structures

Compound: CC[C@H](C)[C@H](NC(C)=O)C(=O)NCC(=O)N[C@@H](CC(C)C)C(=O)N[C@@H](Cc1c[nH]cn1)C(=O)N[C@@H](CC(=O)O)C(=O)N1CCC[C@H]1C(=O)N[C@H](C(=O)N[C@@H](CCC(N)=O)C(=O)NCC(=O)N[C@H](C(=O)N[C@@H](CCC(=O)O)C(=O)N1CCC[C@H]1C(=O)N[C@@H](CC(N)=O)C(=O)NCC(=O)N[C@@H](CSSC[C@H](NC(=O)CNC(=O)[C@H](CC(N)=O)NC(=O)[C@@H]1CCCN1C(=O)[C@H](CCC(=O)O)NC(=O)[C@@H](NC(=O)CNC(=O)[C@H](CCC(N)=O)NC(=O)[C@@H](NC(=O)[C@@H]1CCCN1C(=O)[C@H](CC(=O)O)NC(=O)[C@H](Cc1c[nH]cn1)NC(=O)[C@H](CC(C)C)NC(=O)CNC(=O)[C@@H](NC(C)=O)[C@@H](C)CC)[C@@H](C)O)[C@@H](C)O)C(N)=O)C(N)=O)[C@@H](C)O)[C@@H](C)O [HIP2B Cys-Dimer, (Ac-Ile-Gly-Leu-His-Asp-Pro-Thr-Gln-Gly-Thr-Glu-Pro-Asn-Gly-Cys-NH2)2] (I: Ac-IGLHDPTQGTEPNGC-NH2 / II: Ac-IGLHDPTQGTEPNGC-NH2; disulfide I:15-II:15)
stability to plasma proteases ([1]; human plasma 37° C.): stable to plasma proteases for at least 1 hr
